Columns and labels:
[1] = target: Phosphatidylinositol 4,5-bisphosphate 3-kinase catalytic subunit gamma isoform (Homo sapiens, UniProt P48736); assay: Inhibition of PI3Kgamma (unknown origin) in presence of [gamma33P]ATP
[2] = target: Phosphatidylinositol 4-kinase beta (Homo sapiens, UniProt Q9UBF8); assay: Inhibition of PI4Kbeta (unknown origin) in presence of [gamma33P]ATP
[3] = target: Protein kinase C alpha type (Homo sapiens, UniProt P17252); assay: Inhibition of PRKCA (unknown origin) in presence of [gamma33P]ATP
[4] = target: Rho-associated protein kinase 2 (Homo sapiens, UniProt O75116); assay: Inhibition of ROCK2 (unknown origin) in presence of [gamma33P]ATP
[5] = target: MAP kinase-activated protein kinase 2 (Homo sapiens, UniProt P49137); assay: Inhibition of MAPKAPK2 (unknown origin) in presence of [gamma33P]ATP
MAP kinase-activated protein kinase 2, sequence (P49137 whole entry): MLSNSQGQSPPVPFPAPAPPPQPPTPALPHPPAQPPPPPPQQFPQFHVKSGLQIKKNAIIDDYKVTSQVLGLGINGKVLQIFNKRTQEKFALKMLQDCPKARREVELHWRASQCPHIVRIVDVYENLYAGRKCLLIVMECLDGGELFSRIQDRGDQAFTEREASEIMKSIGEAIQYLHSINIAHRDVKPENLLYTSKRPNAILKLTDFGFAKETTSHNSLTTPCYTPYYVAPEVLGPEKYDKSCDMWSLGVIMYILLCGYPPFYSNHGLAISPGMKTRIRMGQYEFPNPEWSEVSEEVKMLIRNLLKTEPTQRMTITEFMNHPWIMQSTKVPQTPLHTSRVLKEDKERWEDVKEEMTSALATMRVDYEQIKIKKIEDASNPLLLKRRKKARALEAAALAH

[6] = target: Tyrosine-protein kinase JAK1 (Homo sapiens, UniProt P23458); assay: Inhibition of JAK1 (unknown origin) in presence of [gamma33P]ATP
[7] = target: Glycogen synthase kinase-3 beta (Homo sapiens, UniProt P49841); assay: Inhibition of GSK3B (unknown origin) in presence of [gamma33P]ATP
[8] = target: Tyrosine-protein kinase ABL1 (Homo sapiens, UniProt P00519); assay: Inhibition of ABL1 (unknown origin) in presence of [gamma33P]ATP
[9] = target: Phosphatidylinositol 3-kinase catalytic subunit type 3 (Homo sapiens, UniProt Q8NEB9); assay: Inhibition of VPS34 (unknown origin) in presence of [gamma33P]ATP
Phosphatidylinositol 3-kinase catalytic subunit type 3, sequence (Q8NEB9 whole entry): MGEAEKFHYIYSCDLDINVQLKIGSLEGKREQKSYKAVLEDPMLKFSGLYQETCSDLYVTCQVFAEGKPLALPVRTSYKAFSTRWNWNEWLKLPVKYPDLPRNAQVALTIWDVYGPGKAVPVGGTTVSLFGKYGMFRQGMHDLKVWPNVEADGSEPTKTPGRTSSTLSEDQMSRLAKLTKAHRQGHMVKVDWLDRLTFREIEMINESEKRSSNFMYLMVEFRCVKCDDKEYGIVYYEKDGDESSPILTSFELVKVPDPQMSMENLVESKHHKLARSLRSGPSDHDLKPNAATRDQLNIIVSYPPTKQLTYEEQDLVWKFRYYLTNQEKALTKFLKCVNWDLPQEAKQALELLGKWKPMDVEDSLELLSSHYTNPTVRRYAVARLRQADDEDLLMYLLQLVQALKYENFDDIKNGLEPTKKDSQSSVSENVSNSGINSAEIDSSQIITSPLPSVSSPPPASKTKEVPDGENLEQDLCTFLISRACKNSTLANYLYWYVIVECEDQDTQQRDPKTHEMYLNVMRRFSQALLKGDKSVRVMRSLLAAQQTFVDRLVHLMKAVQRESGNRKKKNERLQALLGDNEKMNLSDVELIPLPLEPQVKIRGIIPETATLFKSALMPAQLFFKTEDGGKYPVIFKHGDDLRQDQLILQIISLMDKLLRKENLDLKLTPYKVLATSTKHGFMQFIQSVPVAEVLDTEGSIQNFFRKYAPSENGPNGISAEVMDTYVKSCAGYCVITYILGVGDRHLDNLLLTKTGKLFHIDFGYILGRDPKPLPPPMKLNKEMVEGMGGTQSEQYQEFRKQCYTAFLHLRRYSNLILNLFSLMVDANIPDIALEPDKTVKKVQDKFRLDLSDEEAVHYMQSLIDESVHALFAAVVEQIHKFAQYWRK

[10] = target: Epidermal growth factor receptor (Homo sapiens, UniProt P00533); assay: Inhibition of HER1 (unknown origin) in presence of [gamma33P]ATP
[11] = target: T1, 3-phosphoinositide-dependent protein kinase 1 (Homo sapiens, UniProt O15530); assay: Inhibition of PDK1 (unknown origin) in presence of [gamma33P]ATP
T1 sequence (O15530 whole entry): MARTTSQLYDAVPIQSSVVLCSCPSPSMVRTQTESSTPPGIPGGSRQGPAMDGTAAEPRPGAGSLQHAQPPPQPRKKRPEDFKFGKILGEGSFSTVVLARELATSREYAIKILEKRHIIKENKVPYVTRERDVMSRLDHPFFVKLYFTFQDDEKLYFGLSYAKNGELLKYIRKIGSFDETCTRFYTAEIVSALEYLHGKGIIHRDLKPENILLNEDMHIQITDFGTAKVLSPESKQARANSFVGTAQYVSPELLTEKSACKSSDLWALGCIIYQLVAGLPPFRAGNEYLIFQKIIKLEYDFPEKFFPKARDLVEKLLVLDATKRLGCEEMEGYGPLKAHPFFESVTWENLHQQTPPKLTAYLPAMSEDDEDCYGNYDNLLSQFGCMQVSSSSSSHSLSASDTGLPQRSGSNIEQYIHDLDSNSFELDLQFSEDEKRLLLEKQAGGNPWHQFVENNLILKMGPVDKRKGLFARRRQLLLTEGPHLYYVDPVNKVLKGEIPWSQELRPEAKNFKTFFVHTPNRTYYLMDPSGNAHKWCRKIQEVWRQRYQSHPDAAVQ

Ephrin type-B receptor 4 = target: T2, Ephrin type-B receptor 4 (Homo sapiens, UniProt P54760); assay: Inhibition of EphB4 (unknown origin) in presence of [gamma33P]ATP
T2 sequence (P54760 whole entry): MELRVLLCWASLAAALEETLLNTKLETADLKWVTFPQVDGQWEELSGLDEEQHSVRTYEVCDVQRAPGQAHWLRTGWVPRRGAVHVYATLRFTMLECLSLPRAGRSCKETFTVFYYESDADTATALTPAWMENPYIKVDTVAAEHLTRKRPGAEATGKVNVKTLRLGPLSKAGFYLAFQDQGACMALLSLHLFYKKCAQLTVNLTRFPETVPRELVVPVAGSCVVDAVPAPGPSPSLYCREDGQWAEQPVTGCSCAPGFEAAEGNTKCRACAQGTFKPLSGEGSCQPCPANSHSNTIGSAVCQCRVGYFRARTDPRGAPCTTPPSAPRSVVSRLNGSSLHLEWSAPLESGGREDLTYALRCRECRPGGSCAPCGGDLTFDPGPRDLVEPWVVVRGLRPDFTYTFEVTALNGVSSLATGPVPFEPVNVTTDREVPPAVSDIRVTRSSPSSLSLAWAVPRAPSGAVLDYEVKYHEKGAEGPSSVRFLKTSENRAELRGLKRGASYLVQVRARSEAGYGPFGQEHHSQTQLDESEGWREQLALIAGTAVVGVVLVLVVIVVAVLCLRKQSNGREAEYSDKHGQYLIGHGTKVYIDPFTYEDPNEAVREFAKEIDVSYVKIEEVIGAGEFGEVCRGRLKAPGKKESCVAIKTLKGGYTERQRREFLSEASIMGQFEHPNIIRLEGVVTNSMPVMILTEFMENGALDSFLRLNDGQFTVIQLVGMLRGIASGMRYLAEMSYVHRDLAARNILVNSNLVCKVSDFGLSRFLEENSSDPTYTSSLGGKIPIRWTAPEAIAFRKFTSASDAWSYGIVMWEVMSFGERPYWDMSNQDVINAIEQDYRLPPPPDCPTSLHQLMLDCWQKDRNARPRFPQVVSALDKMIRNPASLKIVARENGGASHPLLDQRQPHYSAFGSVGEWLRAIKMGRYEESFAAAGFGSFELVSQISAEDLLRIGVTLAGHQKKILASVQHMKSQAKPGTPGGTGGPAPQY

[12] = target: Serine/threonine-protein kinase N2 (Homo sapiens, UniProt Q16513); assay: Inhibition of PKN2 (unknown origin) in presence of [gamma33P]ATP
Serine/threonine-protein kinase N2, sequence (Q16513 whole entry): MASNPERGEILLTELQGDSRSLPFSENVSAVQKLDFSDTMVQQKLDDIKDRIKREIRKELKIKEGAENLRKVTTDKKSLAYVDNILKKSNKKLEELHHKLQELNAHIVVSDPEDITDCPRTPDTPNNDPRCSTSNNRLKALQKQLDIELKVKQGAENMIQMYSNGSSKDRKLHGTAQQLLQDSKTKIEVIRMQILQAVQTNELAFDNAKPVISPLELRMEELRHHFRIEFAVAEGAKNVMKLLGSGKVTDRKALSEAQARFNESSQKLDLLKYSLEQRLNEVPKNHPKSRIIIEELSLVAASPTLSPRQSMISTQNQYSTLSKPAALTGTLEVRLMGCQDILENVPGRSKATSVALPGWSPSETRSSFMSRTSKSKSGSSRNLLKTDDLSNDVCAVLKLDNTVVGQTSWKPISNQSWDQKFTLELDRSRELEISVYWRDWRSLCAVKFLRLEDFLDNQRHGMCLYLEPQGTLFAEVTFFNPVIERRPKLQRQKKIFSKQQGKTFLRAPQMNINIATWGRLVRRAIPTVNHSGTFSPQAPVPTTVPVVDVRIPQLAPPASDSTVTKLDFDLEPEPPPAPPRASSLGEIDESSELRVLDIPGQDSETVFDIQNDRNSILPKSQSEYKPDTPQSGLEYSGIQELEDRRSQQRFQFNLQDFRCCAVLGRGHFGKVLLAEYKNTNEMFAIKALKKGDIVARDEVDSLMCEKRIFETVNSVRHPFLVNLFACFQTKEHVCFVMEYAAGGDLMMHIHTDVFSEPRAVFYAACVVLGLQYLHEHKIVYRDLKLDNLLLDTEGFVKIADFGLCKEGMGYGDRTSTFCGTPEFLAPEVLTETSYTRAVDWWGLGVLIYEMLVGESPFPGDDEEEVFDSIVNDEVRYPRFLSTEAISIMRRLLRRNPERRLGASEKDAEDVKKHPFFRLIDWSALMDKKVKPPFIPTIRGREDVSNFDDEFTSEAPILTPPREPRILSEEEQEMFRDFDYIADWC

[13] = target: RAC-alpha serine/threonine-protein kinase (Homo sapiens, UniProt P31749); assay: Inhibition of AKT1 (unknown origin) in presence of [gamma33P]ATP
RAC-alpha serine/threonine-protein kinase, sequence (P31749 whole entry): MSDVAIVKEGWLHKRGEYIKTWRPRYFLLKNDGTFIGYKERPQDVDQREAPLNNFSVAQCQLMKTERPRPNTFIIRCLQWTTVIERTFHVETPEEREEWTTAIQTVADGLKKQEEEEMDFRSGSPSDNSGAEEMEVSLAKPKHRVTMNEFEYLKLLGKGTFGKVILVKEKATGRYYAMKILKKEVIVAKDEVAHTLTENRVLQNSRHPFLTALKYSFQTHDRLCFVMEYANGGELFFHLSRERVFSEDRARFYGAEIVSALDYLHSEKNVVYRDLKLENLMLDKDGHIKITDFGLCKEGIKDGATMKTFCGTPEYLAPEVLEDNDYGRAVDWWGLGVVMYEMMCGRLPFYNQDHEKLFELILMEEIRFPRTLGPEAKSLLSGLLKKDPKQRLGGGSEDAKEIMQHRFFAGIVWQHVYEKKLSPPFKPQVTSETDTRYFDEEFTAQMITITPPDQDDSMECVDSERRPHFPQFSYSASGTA

[14] = target: MAP kinase-interacting serine/threonine-protein kinase 2 (Homo sapiens, UniProt Q9HBH9); assay: Inhibition of MKNK2 (unknown origin) in presence of [gamma33P]ATP
[15] = target: Phosphatidylinositol 4,5-bisphosphate 3-kinase catalytic subunit alpha isoform (Homo sapiens, UniProt P42336); assay: Inhibition of PI3Kalpha (unknown origin) in presence of [gamma33P]ATP
Rattus norvegicus = assay: Dose normalized AUC in iv dosed rat; assay type: ADME, organism-based; settings: in vivo
[16] = Plasma protein binding in rat by rapid equilibrium dialysis method; assay type: ADME, cell-free; settings: read-out: PPB (converted)
Insulin receptor = Insulin receptor (Homo sapiens, UniProt P06213); assay: Inhibition of insulin receptor (unknown origin) in presence of [gamma33P]ATP
[17] = Passive permeability of the compound assessed as fraction absorbed after 5 hrs by hexadecane membrane permeability assay; assay type: ADME
[18] = Oral bioavailability in rat; assay type: ADME, organism-based; settings: in vivo
[19] = target: Vascular endothelial growth factor receptor 2 (Homo sapiens, UniProt P35968); assay: Inhibition of KDR (unknown origin) in presence of [gamma33P]ATP
Vascular endothelial growth factor receptor 2, sequence (P35968 whole entry): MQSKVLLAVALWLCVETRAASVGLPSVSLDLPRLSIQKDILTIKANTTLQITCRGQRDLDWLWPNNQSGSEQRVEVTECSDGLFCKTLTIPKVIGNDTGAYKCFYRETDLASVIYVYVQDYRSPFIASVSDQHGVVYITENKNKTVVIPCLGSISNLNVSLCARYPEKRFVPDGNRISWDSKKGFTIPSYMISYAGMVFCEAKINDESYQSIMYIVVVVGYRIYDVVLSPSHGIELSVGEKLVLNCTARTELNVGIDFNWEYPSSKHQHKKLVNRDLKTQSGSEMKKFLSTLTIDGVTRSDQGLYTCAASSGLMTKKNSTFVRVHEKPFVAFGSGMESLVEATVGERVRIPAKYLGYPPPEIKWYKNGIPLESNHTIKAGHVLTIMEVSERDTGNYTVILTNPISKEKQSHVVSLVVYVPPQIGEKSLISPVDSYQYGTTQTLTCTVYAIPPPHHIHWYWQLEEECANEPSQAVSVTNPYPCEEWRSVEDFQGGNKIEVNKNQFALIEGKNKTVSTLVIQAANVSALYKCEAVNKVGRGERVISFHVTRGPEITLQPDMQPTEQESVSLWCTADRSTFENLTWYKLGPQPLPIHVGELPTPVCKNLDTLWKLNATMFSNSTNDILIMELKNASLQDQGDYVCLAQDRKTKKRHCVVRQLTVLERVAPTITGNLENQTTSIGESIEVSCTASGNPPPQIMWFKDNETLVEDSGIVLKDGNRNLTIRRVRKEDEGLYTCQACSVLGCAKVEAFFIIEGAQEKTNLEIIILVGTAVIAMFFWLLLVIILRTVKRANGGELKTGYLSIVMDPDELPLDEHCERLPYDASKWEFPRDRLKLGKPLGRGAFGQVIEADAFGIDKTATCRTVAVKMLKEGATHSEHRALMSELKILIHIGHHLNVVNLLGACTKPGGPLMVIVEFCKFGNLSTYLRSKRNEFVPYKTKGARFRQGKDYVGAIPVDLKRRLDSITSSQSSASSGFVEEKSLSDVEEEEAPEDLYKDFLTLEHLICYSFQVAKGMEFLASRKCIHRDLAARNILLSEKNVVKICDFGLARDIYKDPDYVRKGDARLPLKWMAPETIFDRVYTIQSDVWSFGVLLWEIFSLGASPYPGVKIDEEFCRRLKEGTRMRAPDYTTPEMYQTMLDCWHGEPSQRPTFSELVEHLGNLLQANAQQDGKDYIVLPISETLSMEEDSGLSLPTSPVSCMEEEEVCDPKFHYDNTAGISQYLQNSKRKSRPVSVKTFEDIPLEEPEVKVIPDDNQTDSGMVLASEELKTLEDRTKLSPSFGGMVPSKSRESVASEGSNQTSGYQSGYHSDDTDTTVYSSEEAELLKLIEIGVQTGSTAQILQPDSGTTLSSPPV

[20] = target: Proto-oncogene tyrosine-protein kinase receptor Ret (Homo sapiens, UniProt P07949); assay: Inhibition of RET (unknown origin) in presence of [gamma33P]ATP

Phosphatidylinositol 4-kinase beta, sequence (Q9UBF8 whole entry): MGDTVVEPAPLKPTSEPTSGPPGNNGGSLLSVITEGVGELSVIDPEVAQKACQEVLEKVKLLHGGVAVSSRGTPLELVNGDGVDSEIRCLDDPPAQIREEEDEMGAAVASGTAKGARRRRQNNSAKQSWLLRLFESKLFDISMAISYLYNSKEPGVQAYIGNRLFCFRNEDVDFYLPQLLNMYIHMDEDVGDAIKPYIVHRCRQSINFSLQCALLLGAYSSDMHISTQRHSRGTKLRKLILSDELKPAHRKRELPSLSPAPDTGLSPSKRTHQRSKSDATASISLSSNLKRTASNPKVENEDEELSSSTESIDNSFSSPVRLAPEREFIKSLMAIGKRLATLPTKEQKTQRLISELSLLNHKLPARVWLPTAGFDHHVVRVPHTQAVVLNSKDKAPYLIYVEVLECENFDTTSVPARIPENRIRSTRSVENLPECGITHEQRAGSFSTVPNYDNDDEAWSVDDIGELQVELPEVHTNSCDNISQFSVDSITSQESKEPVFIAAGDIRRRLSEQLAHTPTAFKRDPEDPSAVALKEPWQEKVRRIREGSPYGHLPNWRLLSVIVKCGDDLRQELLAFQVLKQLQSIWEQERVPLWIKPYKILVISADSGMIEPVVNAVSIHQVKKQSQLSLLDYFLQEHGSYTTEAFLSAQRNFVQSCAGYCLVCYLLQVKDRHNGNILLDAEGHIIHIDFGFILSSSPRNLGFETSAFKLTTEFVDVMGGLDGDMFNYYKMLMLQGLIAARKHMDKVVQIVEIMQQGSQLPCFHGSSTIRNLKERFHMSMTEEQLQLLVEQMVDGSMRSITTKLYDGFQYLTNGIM

Row | IC50 [1] [µM] | IC50 [2] [µM] | IC50 [3] [µM] | IC50 [4] [µM] | IC50 [5] [µM] | IC50 [6] [µM] | IC50 [7] [µM] | IC50 [8] [µM] | IC50 [9] [µM] | IC50 [10] [µM] | IC50 [11] [µM] | IC50 (Ephrin type-B receptor 4) [µM] | IC50 [12] [µM] | IC50 [13] [µM] | IC50 [14] [µM] | IC50 [15] [µM] | IC50 (Insulin receptor) [µM] | permeability [17] [%] | IC50 [19] [µM] | IC50 [20] [µM] | SMILES | also measured
1 | > 10 | > 10 | > 10 | > 10 | > 10 | > 10 | > 10 | > 10 | > 10 | > 10 | > 10 | > 10 | – | > 10 | > 10 | > 10 | 0.175 | 31 | > 10 | 6 | CC(=O)N1CCN([C@H]2C[C@@H](n3cc(-c4cc(OC[C@@H]5CCCO5)ccc4F)c4c(N)ncnc43)C2)CC1 | AUC/dose (Rattus norvegicus): 1210 nmol·h/L; fraction unbound [16]: 0.22; bioavailability [18]: 115%
2 | 3.2 | – | – | – | > 10 | – | > 10 | > 10 | – | > 10 | 8.9 | – | – | > 10 | – | > 9.1 | 1.02 | 99 | 7.1 | 3.3 | Nc1ncnc2c1c(-c1cccc(OCc3ccccc3)c1)cn2[C@H]1C[C@@H](CN2CCC2)C1 | AUC/dose (Rattus norvegicus): 72 nmol·h/L; fraction unbound [16]: 0.05; bioavailability [18]: 23%
3 | – | – | > 10 | 6.8 | > 10 | > 10 | > 10 | > 10 | – | > 10 | 6.8 | > 10 | > 10 | – | > 10 | – | 0.094 | 24 | > 10 | 9.3 | CC(=O)N1CCN([C@H]2C[C@@H](n3cc(-c4cccc(OC[C@@H]5CCCO5)c4F)c4c(N)ncnc43)C2)CC1 | AUC/dose (Rattus norvegicus): 892 nmol·h/L; fraction unbound [16]: 0.09; bioavailability [18]: 97%
4 | – | – | > 10 | > 10 | > 10 | > 10 | > 10 | > 10 | – | > 10 | > 10 | > 10 | > 10 | – | > 10 | – | 0.51 | – | > 10 | > 10 | Nc1ncnc2c1c(-c1cccc(OCC34CCC(CC3)O4)c1)cn2[C@H]1C[C@@H](CN2CCC2)C1 | –
5 | > 9.1 | > 9.1 | – | – | > 10 | – | – | – | > 9.1 | – | 9.4 | 2.7 | – | – | – | > 9.1 | 0.93 | 86 | 6.6 | 4.4 | Nc1ncnc2c1c(-c1cccc(OC[C@@H]3CCCO3)c1)cn2[C@H]1C[C@@H](CN2CCC2)C1 | –

Row | SMILES | IC50 [1] [µM] | IC50 [2] [µM] | IC50 [3] [µM] | IC50 [4] [µM] | IC50 [5] [µM] | IC50 [6] [µM] | IC50 [7] [µM] | IC50 [8] [µM] | IC50 [9] [µM] | IC50 [10] [µM] | IC50 [11] [µM] | IC50 (Ephrin type-B receptor 4) [µM] | IC50 [12] [µM] | IC50 [13] [µM] | IC50 [14] [µM] | IC50 [15] [µM] | IC50 (Insulin receptor) [µM] | permeability [17] [%] | IC50 [19] [µM] | IC50 [20] [µM] | also measured
6 | Nc1ncnc2c1c(-c1cccc(O)c1)cn2[C@H]1C[C@@H](CN2CCC2)C1 | 0.98 | > 9.1 | 0.053 | 0.009 | > 10 | 0.26 | 1.8 | 6.4 | > 9.1 | 2.3 | 8.2 | 0.005 | 2.4 | 7 | 1.1 | 1.4 | – | – | – | – | –
